Data as given in PubChem BioAssay (NCI).
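Interpolation was linear, between the two tested concentrations surrounding the appropriate level; five concentrations were tested over 48 hours in 96-well plates. GI50 marks 50% less growth. TGI marks complete inhibition of growth.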

Tests used:
Test in all cases: NCI anticancer screen, dose series, 48 h
[1] = system: KM12 colon
[2] = system: SF-268 CNS
[3] = system: CCRF-CEM leukemia
[4] = system: COLO 205 colon
[5] = system: SR leukemia
[6] = system: SNB-19 CNS
[7] = system: MOLT-4 leukemia
[8] = system: RXF 393 renal
[9] = system: SK-OV-3 ovarian
[10] = system: RPMI-8226 leukemia
[11] = system: MDA-MB-435
[12] = system: SF-295 CNS
[13] = system: DU-145 prostate
[14] = system: EKVX NSCLC
[15] = system: NCI-H226 lung
[16] = system: HCT-116 colon
[17] = system: HL-60(TB) leukemia
[18] = system: NCI-H23 lung
[19] = system: HOP-92 NSCLC
[20] = system: IGROV1 ovarian
[21] = system: SF-539 CNS
[22] = system: UACC-62 melanoma
[23] = system: TK-10 renal
[24] = system: M14 melanoma
[25] = system: LOX IMVI melanoma
[26] = system: T-47D breast
[27] = system: SW-620 colon
[28] = system: UO-31 renal
[29] = system: 786-0 renal
[30] = system: OVCAR-8 ovarian
[31] = system: HOP-62 NSCLC
[32] = system: MDA-MB-231 breast
[33] = system: SK-MEL-28 melanoma
[34] = system: K-562 leukemia
[35] = system: U251 CNS
[36] = system: BT-549 breast
[37] = system: A549 NSCLC
[38] = system: SN12C renal
[39] = system: OVCAR-4 ovarian
[40] = system: NCI/ADR-RES ovarian
[41] = system: CAKI-1 renal
[42] = system: ACHN renal
[43] = system: SK-MEL-5 melanoma
[44] = system: SNB-75 CNS
[45] = system: MCF7 breast
[46] = system: UACC-257 melanoma
[47] = system: HCC-2998 colon
[48] = system: A498 renal
[49] = system: HCT-15 colon
[50] = system: NCI-H522 lung
[51] = system: PC-3 prostate
[52] = system: SK-MEL-2 melanoma
[53] = system: HT29 colon
[54] = system: OVCAR-3 ovarian
[55] = system: MALME-3M melanoma
[56] = system: OVCAR-5 ovarian
[57] = system: NCI-H460 lung

O=C(/C=C/C12c3ccccc3C(c3ccccc31)C1C(=O)N(c3ccc(Cl)cc3)C(=O)C12)c1ccccn1 (stereo not drawn)
GI50 [1]: 345 nM | GI50 [2]: 672 nM | TGI [2]: > 28.8 µM | GI50 [3]: 290 nM | TGI [3]: > 100 µM | GI50 [4]: 490 nM | TGI [4]: 1130 nM | GI50 [5]: 241 nM | TGI [5]: > 100 µM | GI50 [6]: 426 nM | TGI [6]: 2000 nM | GI50 [7]: 322 nM | TGI [7]: > 100 µM | GI50 [8]: 187 nM | TGI [8]: 448 nM | GI50 [9]: 1980 nM | TGI [9]: > 100 µM | GI50 [10]: 234 nM | TGI [10]: 682 nM | GI50 [11]: 301 nM | TGI [11]: 981 nM | GI50 [12]: 379 nM | TGI [12]: 2030 nM | GI50 [13]: 283 nM | TGI [13]: 747 nM | GI50 [14]: 381 nM | TGI [14]: 2380 nM | GI50 [15]: 258 nM | TGI [15]: 878 nM | GI50 [16]: 183 nM | TGI [16]: 423 nM | GI50 [17]: 240 nM | TGI [17]: 1350 nM | GI50 [18]: 342 nM | TGI [18]: 1360 nM | GI50 [19]: 452 nM | TGI [19]: 1110 nM | GI50 [20]: 248 nM | TGI [20]: 643 nM | GI50 [21]: 258 nM | TGI [21]: 676 nM | GI50 [22]: 279 nM | TGI [22]: 973 nM | GI50 [23]: 1460 nM | TGI [23]: 4.87 µM | GI50 [24]: 300 nM | TGI [24]: 1190 nM | GI50 [25]: 177 nM | TGI [25]: 358 nM | GI50 [26]: 312 nM | TGI [26]: 4.15 µM | GI50 [27]: 300 nM | TGI [27]: 994 nM | GI50 [28]: 178 nM | TGI [28]: 399 nM | GI50 [29]: 194 nM | TGI [29]: 398 nM | GI50 [30]: 328 nM | TGI [30]: > 100 µM | GI50 [31]: 405 nM | TGI [31]: 2220 nM | GI50 [32]: 318 nM | TGI [32]: 2230 nM | GI50 [33]: 342 nM | TGI [33]: 1610 nM | GI50 [34]: 267 nM | TGI [34]: > 100 µM | GI50 [35]: 256 nM | TGI [35]: 740 nM | GI50 [36]: 171 nM | TGI [36]: 365 nM | GI50 [37]: 288 nM | TGI [37]: 989 nM | GI50 [38]: 320 nM | TGI [38]: 1570 nM | GI50 [39]: 478 nM | TGI [39]: > 30.9 µM | GI50 [40]: 332 nM | TGI [40]: > 100 µM | GI50 [41]: 1070 nM | TGI [41]: 4.95 µM | GI50 [42]: 234 nM | TGI [42]: 560 nM | GI50 [43]: 515 nM | TGI [43]: 1210 nM | GI50 [44]: 256 nM | TGI [44]: 1050 nM | GI50 [45]: 313 nM | TGI [45]: > 23 µM | GI50 [46]: 390 nM | TGI [46]: 1960 nM | GI50 [47]: 244 nM | TGI [47]: 658 nM | GI50 [48]: 277 nM | TGI [48]: 792 nM | GI50 [49]: 206 nM | TGI [49]: 660 nM | GI50 [50]: 260 nM | TGI [50]: 1010 nM | GI50 [51]: 331 nM | TGI [51]: 1870 nM | GI50 [52]: 529 nM | TGI [52]: 2740 nM | GI50 [53]: 335 nM | TGI [53]: 8.67 µM | GI50 [54]: 224 nM | TGI [54]: 520 nM | GI50 [55]: 242 nM | TGI [55]: 639 nM | GI50 [56]: 309 nM | TGI [56]: 1140 nM | GI50 [57]: 232 nM | TGI [57]: 568 nM
